Reference: patent US20140173774A1, “SOYBEAN TRAN[…] EFFICIENT AND HIGH-[…] PRODUCTION” (Dow AgroSciences LLC, priority 2012, published 2014)

How the values were obtained:
soybean explants = test: Glyphosate selection of split-seed explants transformed with pDAB107553; design: species or system Glycine max cv. Maverick
Procedure: The novel Agrobacterium-mediated soybean split-seed comprising a portion of an embryonic axis transformation method described in Example 2 was used to transform mature soybean (Glycine max) cv. Maverick seeds with an Agrobacterium strain harboring pDAB 107553. Three different concentrations of glyphosate (e.g., 0.025 mM, 0.05 mM and 0.1 mM) were incorporated into the selection schemes for the soybean split-seed comprising a portion of an embryonic axis transformation method.
As the transformation experiment progressed through various subculture stages, the health of the soybean explants deteriorated. […] The intensity of cotyledon yellowing was more prominent in soybean explants cultured on greater rates of glyphosate (FIG. 9).
The surface of the explants was turning soft and creamy in consistency. The softening effect was very pronounced at the end of SE-1 stage onwards.

[1] = tested on: un-transformed soybean explants; test: Glyphosate dose response study on un-transformed soybean explants in tissue culture; conditions: for Number of Explants at Various Stages of Selection: End of SE-2 / Number of Explants at Various Stages of Selection: SE-1 / Number of Explants at Various Stages of Selection: SE-2 / Number of Explants at Various Stages of Selection: SI-2: 49 explants at CC
Procedure: Initially, a dose response study was completed. To test the effect of glyphosate on the explants, glyphosate was added to media used from the shoot initiation stage and onwards. Glyphosate was tested from the range of 0.025-0.2 mM. Incorporation of glyphosate in tissue culture media within this concentration range has been reported in soybean (Clemente et al, 2000; Hinchee et al, 1996; Martinell et al, 2006; Martinell et al, 1999; Martinell et al, 2002), tobacco (Singer et al, 1985), cotton (Zhao et al, 2006) and wheat (Hu et al, 2003). Five concentrations of glyphosate were tested for culturing of un-transformed soybean explants. The concentrations incorporated into the SI-2 media were 0.025 mM, 0.05 mM, 0.075 mM, 0.1 mM and 0.2 mM. The un-transformed soybean explants were maintained on the same rate of glyphosate selection for all the successive stages of subculture from SI-2 media to the completion of the tissue culturing protocol. The numbers of healthy explants were counted at each subculture stage. Dead explants were discarded and healthy explants were subcultured further onto appropriate media.
Growth of the explants was also retarded on glyphosate containing media. Next, the cotyledons were removed and the explants were subcultured from SI-2 to SE media. At the end of another two weeks of selection on SE media, significant differences in the growth of the explants were observed when the explants were exposed to different levels of glyphosate. The retarded growth of the explants was proportionate to the increasing dose of glyphosate. Similarly the number of dead explants was also proportional to the increasing dose of glyphosate. The number of dead explants increased as the dose of glyphosate was increased. […] Subsequently, three different concentrations of glyphosate (e.g., 0.025 mM, 0.05 mM and 0.1 mM) were incorporated into the selection schemes for Agrobacterium-mediated transformation of the soybean split-seed explants comprising a portion of an embryonic axis.

SMILES: O=C(O)CNCP(=O)(O)O [glyphosate]
- yellowing of the cotyledons (soybean explants; after first selection cycle, two weeks on SI-2 media): yellowing of the cotyledons was noted
- adverse physiological effects on explants (soybean explants; highest level, 0.1 mM, of 0.025, 0.05 and 0.1 mM): greatest adverse physiological effects
- softening of explant tissue (soybean explants; media containing glyphosate, pronounced from end of SE-1): softening on the surfaces of the plant tissues
- Number of Explants at Various Stages of Selection: End of SE-2 ([1]; 0.025 mM glyphosate): 0
- Number of Explants at Various Stages of Selection: SE-1 ([1]; 0.025 mM glyphosate): 41
- Number of Explants at Various Stages of Selection: SE-2 ([1]; 0.025 mM glyphosate): 38
- Number of Explants at Various Stages of Selection: SI-2 ([1]; 0.025 mM glyphosate): 43
- Number of Explants at Various Stages of Selection: End of SE-2 ([1]; 0.05 mM glyphosate): 0
- Number of Explants at Various Stages of Selection: SE-1 ([1]; 0.05 mM glyphosate): 45
- Number of Explants at Various Stages of Selection: SE-2 ([1]; 0.05 mM glyphosate): 38
- Number of Explants at Various Stages of Selection: SI-2 ([1]; 0.05 mM glyphosate): 45
- Number of Explants at Various Stages of Selection: End of SE-2 ([1]; 0.075 mM glyphosate): 0
- Number of Explants at Various Stages of Selection: SE-1 ([1]; 0.075 mM glyphosate): 45
- Number of Explants at Various Stages of Selection: SE-2 ([1]; 0.075 mM glyphosate): 21
- Number of Explants at Various Stages of Selection: SI-2 ([1]; 0.075 mM glyphosate): 47
- Number of Explants at Various Stages of Selection: End of SE-2 ([1]; 0.1 mM glyphosate): 0
- Number of Explants at Various Stages of Selection: SE-1 ([1]; 0.1 mM glyphosate): 41
- Number of Explants at Various Stages of Selection: SE-2 ([1]; 0.1 mM glyphosate): 13
- Number of Explants at Various Stages of Selection: SI-2 ([1]; 0.1 mM glyphosate): 44
- Number of Explants at Various Stages of Selection: End of SE-2 ([1]; 0.2 mM glyphosate): 0
- Number of Explants at Various Stages of Selection: SE-1 ([1]; 0.2 mM glyphosate): 31
- Number of Explants at Various Stages of Selection: SE-2 ([1]; 0.2 mM glyphosate): 1
- Number of Explants at Various Stages of Selection: SI-2 ([1]; 0.2 mM glyphosate): 42
- explant survival at the end of SE-2 ([1]; all levels of glyphosate tested, after six weeks on selection): all of the explants were dead
- extent of yellowness of the cotyledons ([1]; end of culturing on SI-2 media, about 2 weeks): directly proportional to the dose of glyphosate
- growth of the explants ([1]; glyphosate containing SI-2 media): retarded
- explants survived at the end of SE-1 ([1]; highest dose, 0.2 mM): one
- explant survival after 6 weeks of glyphosate selection ([1]; lowest dose tested, 0.025 mM): none of the soybean explants were able to survive
